# Measured values from paper PMC7764985 (2020).
# Columns and labels:
# [1] = tested on: FB1_10 (DNA, aptamer) AGCAGCACAGAGGTCAGATGCGATCTGGATATTATTTTTGATACCCCTTTGGGGAGACATCCTATGCGTGCTACCGTGAA; test: magnetic beads assay, fluorescence; conditions: 100 mM NaCl, 2 mM MgCl2, 5 mM KCl, 1 mM CaCl2; immobilised compound; 20 mM Tris-HCl, 0.02% Tween 20, pH 7.4, room temperature; aptamer up to 2000 nM
# [2] = tested on: FB1_39t3 (DNA, aptamer) ATACCAGCTTATTCAATTAATCGCATTACCTTATACCAGCTTATTCAATTACGTCTGCACATACCAGCTTATTCAATT; test: magnetic beads assay, fluorescence; conditions: 100 mM NaCl, 2 mM MgCl2, 5 mM KCl, 1 mM CaCl2; immobilised compound; 20 mM Tris, pH 7.6, room temperature; aptamer up to 2000 nM
# [3] = tested on: FB1_10 (DNA, aptamer) AGCAGCACAGAGGTCAGATGCGATCTGGATATTATTTTTGATACCCCTTTGGGGAGACATCCTATGCGTGCTACCGTGAA; test: microscale thermophoresis; conditions: 100 mM NaCl, 2 mM MgCl2, 5 mM KCl, 1 mM CaCl2; 20 mM Tris-HCl, 0.02% Tween 20, pH 7.4, 25 °C; 5 nM aptamer
# [4] = tested on: FB1_39 (DNA, aptamer) ATACCAGCTTATTCAATTAATCGCATTACCTTATACCAGCTTATTCAATTACGTCTGCACATACCAGCTTATTCAATTAGATAGTAAGTGCAATCT; test: microscale thermophoresis; conditions: 100 mM NaCl, 2 mM MgCl2, 5 mM KCl, 1 mM CaCl2; 20 mM Tris, pH 7.6, 25 °C; 5 nM aptamer
# [5] = tested on: FB1_39 (DNA, aptamer) ATACCAGCTTATTCAATTAATCGCATTACCTTATACCAGCTTATTCAATTACGTCTGCACATACCAGCTTATTCAATTAGATAGTAAGTGCAATCT; test: magnetic beads assay, fluorescence; conditions: 100 mM NaCl, 2 mM MgCl2, 5 mM KCl, 1 mM CaCl2; immobilised compound; 20 mM Tris, pH 7.6, room temperature; aptamer 0.5-100 nM
# [6] = tested on: FB1_39t3 (DNA, aptamer) ATACCAGCTTATTCAATTAATCGCATTACCTTATACCAGCTTATTCAATTACGTCTGCACATACCAGCTTATTCAATT; test: microscale thermophoresis; conditions: 100 mM NaCl, 2 mM MgCl2, 5 mM KCl, 1 mM CaCl2; 20 mM Tris, pH 7.6, 25 °C; 5 nM aptamer
structure (smiles),measurement,setting,value
CCCC[C@@H](C)[C@@H](OC(=O)C[C@@H](CC(=O)O)C(=O)O)[C@H](C[C@@H](C)C[C@H](O)CCCC[C@@H](O)C[C@H](O)[C@H](C)N)OC(=O)C[C@@H](CC(=O)O)C(=O)O,binding,[1],no
same,binding,[2],no
same,KD,[3],162 ± 137 nM
same,KD,[4],31 ± 22 nM
same,KD,[5],1.53 ± 0.67 nM
same,KD,[6],2200 ± 1100 nM
